Experimental data: patent EP3002287B1, “Thiochromeno[2,3-c]quinolin-12-one derivatives and their use as topoisomerase inhibitors” (National Defense Medical Center, priority 2014, dated 2016)

Tests used:
SR = assay: NCI in vitro 60-cell drug screen (SRB assay); format: cell-based; conditions: SR (Leukemia); 10^-5 molar concentration; 48 hours
NCI-H322M = assay: NCI in vitro 60-cell drug screen (SRB assay); format: cell-based; conditions: NCI-H322M (Non-small cell lung cancer); 10^-5 molar concentration; 48 hours
KM12 = assay: NCI in vitro 60-cell drug screen (SRB assay); format: cell-based; conditions: KM12 (Colon cancer); 10^-5 molar concentration; 48 hours
TK-10 = assay: NCI in vitro 60-cell drug screen (SRB assay); format: cell-based; conditions: TK-10 (Renal cancer); 10^-5 molar concentration; 48 hours
UO-31 = assay: NCI in vitro 60-cell drug screen (SRB assay); format: cell-based; conditions: UO-31 (Renal cancer); 10^-5 molar concentration; 48 hours
OVCAR-8 = assay: NCI in vitro 60-cell drug screen (SRB assay); format: cell-based; conditions: OVCAR-8 (Ovarian cancer); 10^-5 molar concentration; 48 hours
PC-3 [1] = assay: NCI in vitro 60-cell drug screen (SRB assay); format: cell-based; conditions: PC-3 (Prostate cancer); 10^-5 molar concentration; 48 hours
SK-MEL-28 = assay: NCI in vitro 60-cell drug screen (SRB assay); format: cell-based; conditions: SK-MEL-28 (Melanoma); 10^-5 molar concentration; 48 hours
HT29 = assay: NCI in vitro 60-cell drug screen (SRB assay); format: cell-based; conditions: HT29 (Colon cancer); 10^-5 molar concentration; 48 hours
HOP-62 = assay: NCI in vitro 60-cell drug screen (SRB assay); format: cell-based; conditions: HOP-62 (Non-small cell lung cancer); 10^-5 molar concentration; 48 hours
HOP-92 = assay: NCI in vitro 60-cell drug screen (SRB assay); format: cell-based; conditions: HOP-92 (Non-small cell lung cancer); 10^-5 molar concentration; 48 hours
RPMI-8226 = assay: NCI in vitro 60-cell drug screen (SRB assay); format: cell-based; conditions: RPMI-8226 (Leukemia); 10^-5 molar concentration; 48 hours
MDA-MB-486 = assay: NCI in vitro 60-cell drug screen (SRB assay); format: cell-based; conditions: MDA-MB-486 (Breast cancer); 10^-5 molar concentration; 48 hours
SF-295 = assay: NCI in vitro 60-cell drug screen (SRB assay); format: cell-based; conditions: SF-295 (CNS cancer); 10^-5 molar concentration; 48 hours
HS 578T = assay: NCI in vitro 60-cell drug screen (SRB assay); format: cell-based; conditions: HS 578T (Breast cancer); 10^-5 molar concentration; 48 hours
SN12C = assay: NCI in vitro 60-cell drug screen (SRB assay); format: cell-based; conditions: SN12C (Renal cancer); 10^-5 molar concentration; 48 hours
SNB-75 = assay: NCI in vitro 60-cell drug screen (SRB assay); format: cell-based; conditions: SNB-75 (CNS cancer); 10^-5 molar concentration; 48 hours
PC-3 [2] = assay: MTT assay for cell cytotoxicity; format: cell-based, human; conditions: Homo sapiens, 72 h, at least three independent experiments, read-out: MTT assay (IC50 ± SD) PC-3
DU-145 = assay: MTT assay for cell cytotoxicity; format: cell-based, human; conditions: Homo sapiens, 72 h, at least three independent experiments, read-out: MTT assay (IC50 ± SD) DU-145
In short: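 Seeded cells pre-incubated 24 h, then treated 72 h with 0.15–15 µM compound in RPMI-1640/5% FBS at 37 °C. MTT (1 mg/mL) added for 4 h, formazan dissolved in DMSO, absorbance at 560 nm; IC50 from mean of ≥3 independent experiments.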

M14 = assay: NCI in vitro 60-cell drug screen (SRB assay); format: cell-based; conditions: M14 (Melanoma); 10^-5 molar concentration; 48 hours
60 cell lines = assay: NCI in vitro 60-cell drug screen (SRB assay), whole panel statistics; conditions: mean over the cell panel; 10^-5 molar concentration; 48 hours
MALME-3M = assay: NCI in vitro 60-cell drug screen (SRB assay); format: cell-based; conditions: MALME-3M (Melanoma); 10^-5 molar concentration; 48 hours
HCC-2998 = assay: NCI in vitro 60-cell drug screen (SRB assay); format: cell-based; conditions: HCC-2998 (Colon cancer); 10^-5 molar concentration; 48 hours
MDA-MB-231/ATCC = assay: NCI in vitro 60-cell drug screen (SRB assay); format: cell-based; conditions: MDA-MB-231/ATCC (Breast cancer); 10^-5 molar concentration; 48 hours
UACC-257 = assay: NCI in vitro 60-cell drug screen (SRB assay); format: cell-based; conditions: UACC-257 (Melanoma); 10^-5 molar concentration; 48 hours
LOX IMVI = assay: NCI in vitro 60-cell drug screen (SRB assay); format: cell-based; conditions: LOX IMVI (Melanoma); 10^-5 molar concentration; 48 hours
SNB-19 = assay: NCI in vitro 60-cell drug screen (SRB assay); format: cell-based; conditions: SNB-19 (CNS cancer); 10^-5 molar concentration; 48 hours
CAKI-1 = assay: NCI in vitro 60-cell drug screen (SRB assay); format: cell-based; conditions: CAKI-1 (Renal cancer); 10^-5 molar concentration; 48 hours

Structure (SMILES) | Growth percent (SR) [%] | Growth percent (NCI-H322M) [%] | Growth percent (KM12) [%] | Growth percent (TK-10) [%] | Growth percent (UO-31) [%] | Growth percent (OVCAR-8) [%] | Growth percent (PC-3 [1]) [%] | Growth percent (SK-MEL-28) [%] | Growth percent (HT29) [%] | Growth percent (HOP-62) [%] | Growth percent (HOP-92) [%] | Growth percent (RPMI-8226) [%] | Growth percent (MDA-MB-486) [%] | Growth percent (SF-295) [%] | Growth percent (HS 578T) [%] | Growth percent (SN12C) [%] | Growth percent (SNB-75) [%] | IC50 (PC-3 [2]) [µM] | IC50 (DU-145) [µM] | Growth percent (M14) [%] | other results
O=c1c2ccc(Cl)cc2sc2c(Cl)nc3ccccc3c12 [Compound 3, 6,9-Dichloro-12H-thiochromeno[2,3-c]quinolin-12-one] | 89.02 | 100.12 | 111.27 | 108.56 | 66.06 | 101.62 | 91.59 | 101.80 | 99.73 | 82.02 | 90.83 | 100.19 | 98.57 | 90.26 | 95.14 | 95.92 | 77.88 | > 15 | > 15 | 106.18 | Growth percent, Mean (60 cell lines): 98.11%; Growth percent (MALME-3M): 95.87%; Growth percent (HCC-2998): 123.28%; Growth percent (MDA-MB-231/ATCC): 84.28%; Growth percent (UACC-257): 104.47%; Growth percent (LOX IMVI): 90.53%; Growth percent (SNB-19): 107.89%; Growth percent (CAKI-1): 94.31%
CN1CCN(c2nc3ccccc3c3c(=O)c4cc(Cl)ccc4sc23)CC1 [Compound 8, 10-Chloro-6-(4-methylpiperazin-1-yl)-12H-thiochromeno[2,3-c]q uinolin-12-one] | 86.41 | 77.04 | 110.71 | 97.07 | 48.97 | 89.44 | 84.81 | 107.92 | 78.65 | 49.41 | 17.97 | 91.11 | 102.02 | 91.69 | 65.57 | 83.03 | 42.15 | 7.18 ± 2.45 | 12.9 ± 0.26 | 102.15 | Growth percent, Mean (60 cell lines): 86.81%; Growth percent (MALME-3M): 108.36%; Growth percent (HCC-2998): 96.87%; Growth percent (MDA-MB-231/ATCC): 57.30%; Growth percent (UACC-257): 100.55%; Growth percent (LOX IMVI): 87.47%; Growth percent (SNB-19): 87.07%; Growth percent (CAKI-1): 87.50%
O=c1c2cc(Cl)ccc2sc2c(N3CCN(CCO)CC3)nc3ccccc3c12 [Compound 10, 10-Chloro-6-(4-(2-hydroxyethyl)piperazin-1-yl)-12H-thiochrom eno[2,3-c]quinolin-12one] | 79.07 | 82.85 | 101.86 | 93.19 | 42.34 | 84.95 | 77.99 | 100.66 | 63.19 | 67.83 | 39.64 | 84.87 | 81.67 | 100.32 | 76.01 | 86.81 | 77.64 | > 15 | > 15 | 101.70 | Growth percent, Mean (60 cell lines): 84.06%; Growth percent (MALME-3M): 119.20%; Growth percent (HCC-2998): 103.49%; Growth percent (MDA-MB-231/ATCC): 55.49%; Growth percent (UACC-257): 102.79%; Growth percent (LOX IMVI): 87.79%; Growth percent (SNB-19): 84.81%; Growth percent (CAKI-1): 87.87%
O=c1c2cc(Cl)ccc2sc2c(N3CCN(Cc4ccccc4)CC3)nc3ccccc3c12 [Compound 11, 6-(4-Benzylpiperazin-1-yl)-10-chloro-12H-thiochromeno[2,3-c]q uinolin-12-one] | 85.15 | 88.92 | 107.75 | 124.99 | 64.91 | 98.54 | 89.12 | 104.19 | 102.71 | 87.72 | 70.17 | 96.63 | 98.53 | 94.34 | 76.42 | 97.70 | 82.62 | > 15 | > 15 | 93.00 | Growth percent, Mean (60 cell lines): 96.19%; Growth percent (MALME-3M): 112.36%; Growth percent (HCC-2998): 99.32%; Growth percent (MDA-MB-231/ATCC): 89.11%; Growth percent (UACC-257): 95.39%; Growth percent (LOX IMVI): 94.22%; Growth percent (SNB-19): 95.52%; Growth percent (CAKI-1): 94.03%
